Data on 29 compounds can be found in ChEMBL document CHEMBL2203125, “A Potent and Selective Quinoxalinone-Based STK33 Inhibitor Does Not Show Synthetic Lethality in KRAS-Dependent Cells” (ACS Med Chem Lett, 2012).

SMILES strings stand for the structures. ≈ marks a conversion by molar mass, not a printed value. Calls of active or inactive are those of the source. No cut-off for these calls is given here.

The target in data set [1] is T1, Serine/threonine-protein kinase 33 (Homo sapiens, UniProt Q9BYT3). In words: Inhibition of N-terminal 6His-tagged full length human recombinant STK33 using myelin basic protein as substrate incubated for 15 mins before initiation of kinase reaction measured after 1 hr by ADP-glo assay. (In general: In ADP-Glo the light output rises with the ADP produced.)
Target sequence in this assay (Q9BYT3 whole entry): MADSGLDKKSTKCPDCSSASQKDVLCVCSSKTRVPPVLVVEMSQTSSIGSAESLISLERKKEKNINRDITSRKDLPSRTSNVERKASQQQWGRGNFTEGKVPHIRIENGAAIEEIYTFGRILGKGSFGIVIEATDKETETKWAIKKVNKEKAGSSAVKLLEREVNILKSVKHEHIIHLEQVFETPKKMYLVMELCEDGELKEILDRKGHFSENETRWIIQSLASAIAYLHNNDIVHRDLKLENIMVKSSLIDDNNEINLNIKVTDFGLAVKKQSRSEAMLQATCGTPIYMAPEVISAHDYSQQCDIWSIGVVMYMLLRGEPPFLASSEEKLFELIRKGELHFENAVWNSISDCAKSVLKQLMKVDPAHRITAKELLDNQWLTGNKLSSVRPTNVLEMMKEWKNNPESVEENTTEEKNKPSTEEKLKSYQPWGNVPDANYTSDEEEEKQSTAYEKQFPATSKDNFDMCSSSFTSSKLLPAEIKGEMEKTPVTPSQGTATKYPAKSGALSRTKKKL
Data set [2] is described as follows: Chemical stability of the compound in DMSO solution by LC-MS analysis. In kind it is physicochemical.
Data set [3] can be described thus: Inhibition of His-tagged recombinant catalytic fragment of PKA assessed as phosphorylation of fluorescent-labeled peptide 21substrate by caliper capillary electrophoresis.
For data set [4], the species on record is Homo sapiens. Put plainly: Selectivity ratio of IC50 for His-tagged recombinant catalytic fragment of PKA to IC50 for N-terminal 6His-tagged full length human recombinant STK33.
For data set [5], the species on record is Homo sapiens. In words: Selectivity ratio of IC50 for human Aurora-B to IC50 for N-terminal 6His-tagged full length human recombinant STK33.
For data set [6], the species on record is Homo sapiens. Put plainly: Selectivity ratio of IC50 for N-terminal 6His-tagged full length human recombinant STK33 to IC50 for human Aurora-B.
For another data set, the system named is RPMI-8226. In words: Cytotoxicity against human RPMI8226 cells expressing KRAS mutant gene assessed as effect on cell viability up to 10 uM after 72 hrs by CellTiter-Glo luminescent assay. In kind it is functional, cell-based.
The test system of a further data set is KOPN-8. Put plainly: Cytotoxicity against human KOPN8 cells expressing KRAS mutant gene assessed as effect on cell viability up to 10 uM after 72 hrs by CellTiter-Glo luminescent assay. It counts as functional, cell-based. (In general: Cellular ATP, detected with luciferase, serves as a proxy for viable cell number.)
Data set [7] concerns the target T1, Serine/threonine-protein kinase 33. Particulars: 1 uM.
Target sequence in this assay (Q9BYT3 whole entry, looked up): as the sequence (Q9BYT3 whole entry) above
Description: Inhibition of N-terminal 6His-tagged full length human recombinant STK33 using myelin basic protein as substrate at 1 uM incubated for 15 mins before initiation of kinase reaction measured after 1 hr by ADP-glo assay
The subject of a further data set is GDM-1. Put plainly: Cytotoxicity against human GDM-1 cells expressing wild type KRAS assessed as effect on cell viability up to 10 uM after 72 hrs by CellTiter-Glo luminescent assay. It counts as functional, cell-based.
Data set [8] is described as follows: Metabolic stability in mouse plasma at 5 uM after 5 hrs by UPLC-MS analysis. In kind it is ADME, cell-free. Particulars: read-out: Stability.
A short description of data set [9]: Metabolic stability in human plasma at 5 uM after 5 hrs by UPLC-MS analysis. In kind it is ADME, cell-free. Particulars: read-out: Stability.
The next data set has as its system U-937. In words: Cytotoxicity against human U937 cells expressing wild type KRAS assessed as effect on cell viability up to 10 uM after 72 hrs by CellTiter-Glo luminescent assay. It counts as functional, cell-based.
For the next data set, the system named is OCI-AML-3. In words: Cytotoxicity against human OCI-AML3 cells expressing wild type KRAS assessed as effect on cell viability up to 10 uM after 72 hrs by CellTiter-Glo luminescent assay. In kind it is functional, cell-based.
The test system of the next data set is EJM. Put plainly: Cytotoxicity against human EJM cells expressing wild type KRAS assessed as effect on cell viability up to 10 uM after 72 hrs by CellTiter-Glo luminescent assay. It counts as functional, cell-based.
Data set [10] concerns Plasma. In words: Plasma protein binding in mouse at 5 uM after 5 hrs by equilibrium dialysis method. In kind it is ADME, cell-free.
In the next data set the test system is MOLM16. Put plainly: Cytotoxicity against human MOLM16 cells expressing wild type KRAS assessed as effect on cell viability up to 10 uM after 72 hrs by CellTiter-Glo luminescent assay. It counts as functional, cell-based.
The test system of a further data set is EOL1. Put plainly: Cytotoxicity against human EOL-1 cells expressing wild type KRAS assessed as effect on cell viability up to 10 uM after 72 hrs by CellTiter-Glo luminescent assay. It counts as functional, cell-based.
The test system of the next data set is Jurkat. Put plainly: Cytotoxicity against human Jurkat cells expressing wild type KRAS assessed as effect on cell viability up to 10 uM after 72 hrs by CellTiter-Glo luminescent assay. It counts as functional, cell-based.
The next data set deals with MDA-MB-231. In words: Cytotoxicity against human MDA-MB-231 cells expressing KRAS mutant gene assessed as effect on cell viability up to 10 uM after 72 hrs by CellTiter-Glo luminescent assay. In kind it is functional, cell-based.
For data set [11], the target named is Vascular endothelial growth factor receptor 2 (Homo sapiens) (UniProt P35968). Particulars: 1 uM.
Description: Inhibition of human KDR at 1 uM
In a further data set the test system is NB-4. Put plainly: Cytotoxicity against human NB4 cells expressing KRAS mutant gene assessed as effect on cell viability up to 10 uM after 72 hrs by CellTiter-Glo luminescent assay. In kind it is functional, cell-based.
A further data set concerns SKM-1. In words: Cytotoxicity against human SKM1 cells expressing KRAS mutant gene assessed as effect on cell viability up to 10 uM after 72 hrs by CellTiter-Glo luminescent assay. It counts as functional, cell-based.
The nature of data set [12]: Solubility of the compound in PBS at pH 7.4. It counts as physicochemical. Particulars: buffer.
In a further data set the test system is MM1.S. Put plainly: Cytotoxicity against human MM1S cells expressing wild type KRAS assessed as effect on cell viability up to 10 uM after 72 hrs by CellTiter-Glo luminescent assay. It counts as functional, cell-based.
For data set [13], the species on record is Homo sapiens. In words: Cytotoxicity against human KARPAS620 cells expressing KRAS mutant gene assessed as effect on cell viability up to 10 uM after 72 hrs by CellTiter-Glo luminescent assay. In kind it is functional, cell-based.
Data set [14] deals with Plasma. Put plainly: Plasma protein binding in human at 5 uM after 5 hrs by equilibrium dialysis method. In kind it is ADME, cell-free. On the technique in general: Equilibrium dialysis compares concentrations on both sides of a semipermeable membrane.
A further data set relates to NOMO-1. In words: Cytotoxicity against human NOMO1 cells expressing KRAS mutant gene assessed as effect on cell viability up to 10 uM after 72 hrs by CellTiter-Glo luminescent assay. In kind it is functional, cell-based.
In the next data set the test system is PL21. In words: Cytotoxicity against human PL21 cells expressing wild type KRAS assessed as effect on cell viability up to 10 uM after 72 hrs by CellTiter-Glo luminescent assay. It counts as functional, cell-based.
The test system of a further data set is THP-1. Put plainly: Cytotoxicity against human THP1 cells expressing wild type KRAS assessed as effect on cell viability up to 10 uM after 72 hrs by CellTiter-Glo luminescent assay. It counts as functional, cell-based.
The target of data set [15] is Receptor-type tyrosine-protein kinase FLT3 (Homo sapiens) (UniProt P36888). Conditions: 1 uM.
Receptor-type tyrosine-protein kinase FLT3 (Homo sapiens), sequence (P36888 whole entry): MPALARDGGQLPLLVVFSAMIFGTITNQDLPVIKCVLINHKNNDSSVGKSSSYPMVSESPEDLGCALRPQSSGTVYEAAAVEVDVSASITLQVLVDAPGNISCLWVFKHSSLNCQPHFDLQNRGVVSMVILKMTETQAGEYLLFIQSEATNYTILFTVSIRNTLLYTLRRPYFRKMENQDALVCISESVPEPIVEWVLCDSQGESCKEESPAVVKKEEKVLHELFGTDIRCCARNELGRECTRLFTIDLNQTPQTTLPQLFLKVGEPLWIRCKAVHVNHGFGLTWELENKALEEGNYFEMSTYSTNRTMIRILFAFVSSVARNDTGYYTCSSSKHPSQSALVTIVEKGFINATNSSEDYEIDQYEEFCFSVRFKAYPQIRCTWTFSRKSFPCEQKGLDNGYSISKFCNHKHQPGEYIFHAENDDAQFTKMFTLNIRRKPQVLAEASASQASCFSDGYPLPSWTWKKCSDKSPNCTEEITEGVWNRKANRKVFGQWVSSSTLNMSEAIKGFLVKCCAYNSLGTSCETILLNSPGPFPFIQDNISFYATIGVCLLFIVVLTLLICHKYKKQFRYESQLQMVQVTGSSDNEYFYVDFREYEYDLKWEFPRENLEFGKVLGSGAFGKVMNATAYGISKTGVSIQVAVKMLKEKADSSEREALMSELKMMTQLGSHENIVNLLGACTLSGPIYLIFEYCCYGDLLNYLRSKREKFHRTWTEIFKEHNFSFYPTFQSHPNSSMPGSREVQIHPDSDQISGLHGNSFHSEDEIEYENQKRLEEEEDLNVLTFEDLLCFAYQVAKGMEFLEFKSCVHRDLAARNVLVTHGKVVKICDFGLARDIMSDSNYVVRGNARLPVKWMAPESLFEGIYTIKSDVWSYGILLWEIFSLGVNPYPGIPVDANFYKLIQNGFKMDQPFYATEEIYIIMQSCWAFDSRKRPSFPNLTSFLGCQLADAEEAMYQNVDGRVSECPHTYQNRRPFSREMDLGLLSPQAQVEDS
Description: Inhibition of human FLT3 at 1 uM

Vascular endothelial growth factor receptor 2 (Homo sapiens), sequence (P35968 whole entry): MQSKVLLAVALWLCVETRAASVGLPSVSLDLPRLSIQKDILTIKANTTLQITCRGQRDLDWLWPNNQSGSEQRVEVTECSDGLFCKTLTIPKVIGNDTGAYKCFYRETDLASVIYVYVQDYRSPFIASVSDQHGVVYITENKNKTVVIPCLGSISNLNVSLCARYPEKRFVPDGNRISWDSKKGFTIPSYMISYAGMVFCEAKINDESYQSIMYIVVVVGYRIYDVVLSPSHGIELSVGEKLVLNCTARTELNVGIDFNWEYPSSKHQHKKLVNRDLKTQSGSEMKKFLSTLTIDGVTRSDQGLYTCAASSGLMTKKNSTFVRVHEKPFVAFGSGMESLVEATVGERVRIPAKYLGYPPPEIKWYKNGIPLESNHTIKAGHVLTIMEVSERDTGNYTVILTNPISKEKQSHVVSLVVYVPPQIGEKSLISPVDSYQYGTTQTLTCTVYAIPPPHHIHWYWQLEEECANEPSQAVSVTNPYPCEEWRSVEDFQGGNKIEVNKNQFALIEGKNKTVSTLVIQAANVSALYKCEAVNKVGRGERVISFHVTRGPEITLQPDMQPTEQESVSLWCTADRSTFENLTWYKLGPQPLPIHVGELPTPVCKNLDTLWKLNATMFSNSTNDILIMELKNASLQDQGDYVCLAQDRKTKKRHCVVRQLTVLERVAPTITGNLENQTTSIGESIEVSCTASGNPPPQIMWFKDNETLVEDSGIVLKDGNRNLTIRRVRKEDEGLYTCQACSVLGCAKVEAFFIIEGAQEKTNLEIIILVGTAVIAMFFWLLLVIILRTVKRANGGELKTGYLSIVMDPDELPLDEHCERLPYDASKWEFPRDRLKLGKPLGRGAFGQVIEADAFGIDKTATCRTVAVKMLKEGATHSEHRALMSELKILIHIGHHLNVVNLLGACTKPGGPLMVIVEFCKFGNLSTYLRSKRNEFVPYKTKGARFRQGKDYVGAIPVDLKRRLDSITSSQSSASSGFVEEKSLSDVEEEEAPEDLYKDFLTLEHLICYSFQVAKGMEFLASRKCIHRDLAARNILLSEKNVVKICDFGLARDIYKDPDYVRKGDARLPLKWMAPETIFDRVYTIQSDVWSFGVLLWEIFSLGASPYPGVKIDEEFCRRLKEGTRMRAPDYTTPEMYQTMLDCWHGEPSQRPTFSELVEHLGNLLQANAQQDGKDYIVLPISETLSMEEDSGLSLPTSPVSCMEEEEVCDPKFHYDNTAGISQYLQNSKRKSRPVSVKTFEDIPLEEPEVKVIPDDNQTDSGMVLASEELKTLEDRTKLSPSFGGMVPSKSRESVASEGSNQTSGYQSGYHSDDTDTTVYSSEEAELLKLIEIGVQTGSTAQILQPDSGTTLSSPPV

Usually IC50 stands for the concentration needed to halve the response being measured. Regarding `O=C(Nc1ccccc1-c1nc2ccccc2[nH]c1=O)c1cccnc1`, the values for the IC50 in data set [1] and in data set [3] were 580 nM and more than 10000 nM, respectively. Further, the Stability entry in data set [2] is recorded as “Stable”.

`O=c1[nH]c2ccccc2nc1-c1ccccc1NCc1ccccc1`: the IC50 in data set [1] and in data set [3] was more than 10000 nM each time.

Take `O=C(Nc1cc(F)ccc1-c1nc2ccccc2[nH]c1=O)c1cccs1`: the 50% inhibitory concentration (IC50) in [1] was 78 nM; in [3] it was more than 10000 nM.

As to `CC(=O)NC[C@@H]1C[C@@H](NS(=O)(=O)c2cccc3cncc(C)c23)CN1`, the Ratio IC50 in the data set filed under Homo sapiens [4] and in the data set filed under Homo sapiens [5] was 5 in each case.

For `O=C(Nc1ccccc1-c1nc2ccccc2[nH]c1=O)c1ccccc1`, the IC50 in data set [1] worked out at 170 nM.

As to `O=C(Nc1cc(Cl)ccc1-c1nc2ccccc2[nH]c1=O)c1cccs1`, the figures for the IC50 in [1] and in [3] were 270 nM and more than 10000 nM, respectively.

As for `O=c1[nH]c2ccccc2nc1-c1ccccc1NS(=O)(=O)c1cccs1`, the IC50 in data set [1] is more than 10000 nM.

Regarding `COc1ccc(-n2ncc3ccc(Nc4ccc(N5CCN(C)CC5)c(OC)c4)nc32)cc1`, the values for the Ratio IC50 in the data set filed under Homo sapiens [6] and in the data set filed under Homo sapiens [5] were 2 and 0.4, respectively.

Regarding `O=C(Nc1ccccc1-c1nc2cc(F)c(F)cc2[nH]c1=O)c1cccs1`, the IC50 was 1600 nM in data set [1] and more than 10000 nM in data set [3].

Take `O=C(Nc1ccc(Cl)cc1-c1nc2ccccc2[nH]c1=O)c1cccs1`: the IC50 is 160 nM in data set [1] and more than 10000 nM in data set [3].

Consider `COc1ccc(C(=O)Nc2ccccc2-c2nc3ccccc3[nH]c2=O)cc1`, for which the IC50 in data set [1] is 980 nM; in [3], more than 10000 nM.

Take `O=C(Nc1ccccc1-c1nc2ccccc2[nH]c1=O)c1ccc(Cl)s1`: in data set [1], the IC50 stood at 380 nM.

With `Cc1cc2nc(-c3ccccc3NC(=O)c3cccs3)c(=O)[nH]c2cc1C`, the IC50 in data set [1] is 1600 nM; in data set [3], more than 10000 nM.

Regarding `COc1ccc(NC(=O)c2cccs2)c(-c2nc3ccccc3[nH]c2=O)c1`, the IC50 stood at 250 nM in data set [1] and 7500 nM in data set [3]. Further, the Ratio IC50 in the data set listed under Homo sapiens [4] was determined as 30.

On to `O=c1[nH]c2ccccc2nc1-c1ccccc1NCC1CC1`, for which the IC50 in data set [1] is more than 10000 nM.

With `O=C(Nc1ccccc1-c1nc2cc(Cl)c(Cl)cc2[nH]c1=O)c1cccs1`, the IC50 in [1] is 4000 nM; in [3] it was 4800 nM. For the same compound, in the data set filed under Homo sapiens [4], the Ratio IC50 was 1.1.

As to `O=C(Nc1ccc(OC(F)(F)F)cc1-c1nc2ccccc2[nH]c1=O)c1cccs1`, the IC50 was 110 nM in data set [1] and more than 10000 nM in [3].

On to `O=C(Nc1ccccc1-c1nc2ccccc2[nH]c1=O)c1ccc(Cl)cc1`, for which, in data set [1], the IC50 turned out to be 300 nM.

Turning to `O=C(Nc1ccccc1-c1nc2ccccc2nc1O)c1cccs1`, the IC50 in data set [1] is 280 nM; in data set [3], more than 10000 nM.

For orientation: inhibition means how much of the control response was suppressed. Broadly, the solubility is the dissolved amount per volume that the medium holds. As for `CC(C)c1ccc(NC(=O)c2cccs2)c(-c2nc3ccccc3[nH]c2=O)c1`, the IC50 is 14 nM in [1] and more than 10000 nM in [3]. Also, the result in the data set with RPMI-8226, in the data set with KOPN-8, with GDM-1, with U-937, with OCI-AML-3 and in the data set with EJM was inactive. In addition, the outcome with MOLM16, with EOL1, with Jurkat, in the data set on MDA-MB-231, in the data set on NB-4 and in the data set with SKM-1 was inactive. For the same compound, the result in the data set on MM1.S, in the data set filed under Homo sapiens [13], in the data set with NOMO-1, in the data set on PL21 and in the data set with THP-1 was inactive. Moreover, the inhibition in data set [7], in data set [11] and in data set [15] was more than 25% in each case. For the same compound, the remaining at 5 h, 5 µM stood at 10% in data set [8] and 80.3% in data set [9]. Moreover, the PPB stood at 99.9% in the data set on Plasma [10] and 99.6% in the data set on Plasma [14]. For the same compound, in [12], the solubility came to 5.8 µM (≈ 2.26 µg/mL).

For the compound `O=C(Nc1ccccc1-c1nc2ccccc2[nH]c1=O)c1ccc(F)cc1`, the values for the IC50 in data set [1] and in data set [3] were 150 nM and more than 10000 nM, respectively. In addition, the Stability entry in [2] was “Unstable”.

Consider `O=C(Nc1ccccc1-c1nc2ccccc2[nH]c1=O)C1CCCCC1`, for which the IC50 in data set [1] and in [3] was more than 10000 nM in each case.

Regarding `O=c1[nH]c2ccccc2nc1-c1ccccc1NCc1ccc(F)cc1`, the IC50 in data set [1] is more than 10000 nM.

With `O=c1[nH]c2ccccc2nc1-c1ccccc1NCc1cccs1`, the IC50 in data set [1] and in data set [3] was more than 10000 nM throughout.

For the compound `O=C(Nc1ccccc1-c1nc2ccccc2[nH]c1=O)c1nccs1`, the IC50 in data set [1] worked out at 530 nM.

For the compound `O=C(Nc1ccccc1-c1nc2ccccc2[nH]c1=O)c1ccccn1`, the IC50 was 76 nM in data set [1] and more than 10000 nM in data set [3]. In addition, the Stability entry in [2] is on record as “Unstable”.

`O=c1[nH]c2ccccc2nc1-c1ccccc1NCc1ccccn1`: the IC50 in data set [1] is 1600 nM.

On to `O=C(Nc1ccc(F)cc1-c1nc2ccccc2[nH]c1=O)c1cccs1`, for which the IC50 in data set [1] was 410 nM; in data set [3] it was more than 10000 nM.

Turning to `O=c1[nH]c2ccccc2nc1-c1ccccc1NS(=O)(=O)c1ccccc1`, the IC50 in [1] is 7300 nM.
